Earlier results, collected in patent publication US10539496B2, “Instrument and method for optical particle sensing” (Invitrox, Inc., priority 2011, dated 2020).

Tested on: platelets
Settings: platelet inhibition in arterial thrombophilic diseases; share of drug-treated patients

| Compound | treated patients who do not respond to treatment |
| --- | --- |
| CC(=O)Oc1ccccc1C(=O)O [ASA, Aspirin] | Approximately 25% |
| COC(=O)[C@H](c1ccccc1Cl)N1CCc2sccc2C1 [Plavix, clopidogrel bisulfate] | ~29% |
